Source: patent US10228381B2, “Additive channels” (Emulate Inc., priority 2016, dated 2019)
Entries after “also recorded” stand apart in the source; their conditions may differ. Positions of bridges follow the written chain, without caps; N, C: chain ends. Non-standard residues stand in square brackets, D forms with d. Residues, ends and D or L forms follow the SMILES beside them. hArg = N=C(N)NCCCC[C@H](N)C(=O)O; Mpa = O=C(O)CCS

How the values were obtained:
[1] = system: fibrin deposition on HUVEC endothelium; assay: Vessel-On-Chip blood perfusion, fibrin deposition by fluorescence imaging; assay type: cell-based, human; settings: for fibrin signal intensity (fibrin deposition on the endothelium): endothelial pre-treatment TNF-α 50 ng/ml 6 hours, or sCollagen 10 μg/ml in blood; for fibrin deposition on the endothelium compared to untreated blood: hu5C8 240 μg/mL, sCD40L 10 ng/ml, 4 donors, 60 μl/minute
Experimental: (§1) Adding Blood to a Vessel-On-Chip And Flow Conditions: A medical grade plastic reservoir was mounted on the chip, then 800 μl of the blood sample was pipetted into the reservoir. The chip was perfused with the blood by withdrawing it at a rate of 60 μl/minute using a syringe pump. The citrated blood was re-calcified 2 minutes after the beginning of each experiment by adding 100 μl/ml of a solution containing 100 mM calcium chloride and 75 mM magnesium chloride to the blood to permit calcium- and magnesium -dependent platelet function and coagulation.
Visualizing Fibrin Deposition: When analyzing the formation of fibrin, 10 μg/ml of fluorescently labeled fibrinogen (Alexa 488, Invitrogen) was also added to the blood. While fluorescent fibrinogen was barely detected as a diffused fluorescence, fibrin deposition on inflamed cells and sparse clots was easily distinguished since fibrin formed filamentous structures produce a signal intensity that is clearly observed above a background threshold.
(§2) Fluorescence Image Analysis: Chips perfused with blood samples were immediately imaged via fluorescence microscopy (Olympus IX83, 10× objective UPLFLN10X2 , Orca-Flash4.0 CMOS Camera). Each chamber was inspected along its entire length and 5 images (about 0.25 cm) were captured from the central area of the chamber. Image processing and quantification was performed with an automatic macro compiled in ImageJ and numerical values corresponding to platelet coverage or fibrin florescence were collected and statistically analyzed in Graphpad Prism V7.

[2] = system: human whole blood on HUVEC endothelium; assay: Vessel-On-Chip thrombosis, all endpoints together (platelet coverage, fibrin deposition, TAT); assay type: cell-based; settings: adding Eptifibatide; n=4 donors
[3] = system: platelets in human whole blood on HUVEC endothelium; assay: Vessel-On-Chip blood perfusion, platelet coverage by fluorescence imaging; assay type: cell-based; settings: for areas of platelet coverage (platelet aggregation on the endothelium): endothelial pre-treatment TNF-α 50 ng/ml 6 hours, or sCollagen 10 μg/ml in blood; for platelet aggregate formation compared to untreated blood: hu5C8 240 μg/mL, sCD40L 10 ng/ml, 4 donors, 60 μl/minute
Experimental: Platelets: Platelets were labeled with human CD41-PE antibody (10 μL/ml, Invitrogen) directly added to the blood and incubated at room temperature for 5 minutes.
as §1, §2
Platelet Coverage: A percentage of signal coverage (or Platelet coverage) was computed from the binary image as the ratio of bright pixels to the total number of pixels in the image. Image processing and quantification was performed with an automatic macro compiled in ImageJ in order to ensure unbiased signal measurements. Numerical values corresponding to platelet coverage or fibrin fluorescence (signal intensity) were collected and statistically analyzed in Graphpad Prism V7.

[4] = system: blood clots on endothelium; assay: Imaging of blood clots formed on-chip (SEM, micrographs, 3D movie); assay type: cell-based, human; settings: after blood perfusion
Experimental: Scanning Electron Microscopy Sample Pre-treatment and Imaging: Immediately after fluorescence imaging, the chips were fixed in 2.5% glutaraldehyde in 100 mM sodium cacodylate buffer for 2 hours at room temperature. Then, the samples were washed and post fixed in 1% osmium tetroxide for 1 hour at room temperature. After the postfixation, the samples were dehydrated in series dilutions of ethanol and finally completely dried in a Critical point dryer (Tousimus Autosamsri-815). After mounting, the samples were gold sputtered using a Sputter coating system (Hummer 6.2) and imaged by SEM (Jeol 5600LV).

[5] = system: thrombin anti-thrombin complex (TAT); assay: Thrombin-Anti Thrombin (TAT) ELISA in chip effluent; assay type: cell-based, human; settings: FIG. 22B; plasma from blood flowing out of the chip
Experimental: Thrombin-Anti Thrombin (TAT) Measurement via ELISA: Thrombin Anti-Thrombin (TAT) levels were analyzed in plasma from blood flowing out of the chip device by removing a sample from the outflow port. Thus TAT levels were evaluated in sample effluents collected from the outflow port of the chip using the Human TAT ELISA Kit (Siemens Healthineers) according to the user manual.

[6] = Eptifibatide 2 ug/ml, endothelium inflamed with TNF-α, n=4
[7] = Eptifibatide 2 ug/ml, following treatment with sCollagen, n=4

## N=C(N)NCCCC[C@@H]1NC(=O)CCSSC[C@@H](C(N)=O)NC(=O)[C@@H]2CCCN2C(=O)[C@H](Cc2c[nH]c3ccccc23)NC(=O)[C@H](CC(=O)O)NC(=O)CNC1=O [Eptifibatide] ([Mpa][hArg]GDWPC-NH2; disulfide 1-7)
[1]; [6]
  fibrin clot formation: significantly inhibited
[1]; [7]
  inhibitory effect on fibrin clot formation: comparatively modest
[1]; Eptifibatide 2 ug/ml, samples treated with TNF-α
  fibrin signal (image analysis of multiple experiments): significant amount of fibrin signal was still detectable
[2]
  pro-thrombotic effects (platelet coverage, fibrin deposition) of TNF-α and sCollagen / thrombotic events: suppressed; also recorded: inhibited
[3]; [6]
  platelet aggregation: significantly inhibited
[3]; [7]
  inhibitory effect on platelet aggregation: comparatively modest
[3]; Eptifibatide 2 ug/ml, n=4
  platelet adhesion (image analysis of multiple experiments): completely inhibited

## TNF-α
[1]
  fibrin signal intensity (fibrin deposition on the endothelium): increased
[4]
  structure of blood clots formed on-chip: compact clots composed of red blood cells and platelets, surrounded by fibrin; also recorded: high number of larger aggregates containing a platelet rich core decorated with fibrin
[5]
  levels of TAT in outflow samples: significantly increased; also recorded: elevated levels
[3]
  areas of platelet coverage (platelet aggregation on the endothelium): increased

## sCollagen: soluble collagen (Soluble Calf Skin, Type I), a standard platelet activator
[1]
  fibrin signal intensity (fibrin deposition on the endothelium): increased
[4]
  structure of blood clots formed on-chip: meshwork of complex fibrin-rich clots that incorporated red blood cells and platelets; also recorded: high number of larger aggregates containing a platelet rich core decorated with fibrin
[5]
  levels of TAT in outflow samples: minimally increased; also recorded: elevated levels
[3]
  areas of platelet coverage (platelet aggregation on the endothelium): increased

B1: sCD40L: soluble CD40 ligand; recombinant human sCD40 Ligand (protein, UniProt P29965 113-261, looked up)
CD40 ligand, soluble form: MQKGDQNPQIAAHVISEASSKTTSVLQWAEKGYYTMSNNLVTLENGKQLTVKRQGLYYIYAQVTFCSNREASSQAPFIASLCLKSPGRFERILLRAANTHSSAKPCGQQSIHLGGVFELQPGASVFVNVTDPSQVSHGTGFTSFGLLKL
modifications: CD40 ligand, soluble form
[1]
  fibrin deposition on the endothelium compared to untreated blood: no significant treatment-related effects
[3]
  platelet aggregate formation compared to untreated blood: no significant treatment-related effects
[3]; in some donors, sCD40L alone
  platelet coverage, fold-increase over untreated control: about 2 fold
[3]; sCD40L alone, up to 15 donors
  mean increase in platelet coverage compared to controls: not statistically significant

B2: hu5C8: humanized monoclonal IgG1 antibody against CD40L, alternatively named anti-sCD40L or anti-CD154 (antibody, chains of the INN, looked up, V domains shown)
VH: QVQLVQSGAEVVKPGASVKLSCKASGYIFTSYYMYWVKQAPGQGLEWIGEINPSNGDTNFNEKFKSKATLTVDKSASTAYMELSSLRSEDTAVYYCTRSDGRNDMDSWGQGTLVTVSS
VL: DIVLTQSPATLSVSPGERATISCRASQRVSSSTYSYMHWYQQKPGQPPKLLIKYASNLESGVPARFSGSGSGTDFTLTISSVEPEDFATYYCQHSWEIPPTFGGGTKLEIK
[1]
  fibrin deposition on the endothelium compared to untreated blood: no significant treatment-related effects
[3]
  platelet aggregate formation compared to untreated blood: no significant treatment-related effects
